In patent US20120328696A1, “ANTI-PARKINSONIAN COMPOUND ACETYLSALICYLIC ACID MALTOL ESTER” (Hutecs Korea Pharmaceutical Co., Ltd., priority 2008, published 2012):

Legend:
Assay type in all cases: in vivo
[1] = system: GPx-1 (+/+)- and GPx-1 (−/−)-mice; test: Locomotor activity after MA; details: PKC inhibitors intra-striatal (chelerythrine 0.2 ug/head, rottlerin 3.0 ug/head significant); MA 8 mg/kg i.p. x4; GPx-1 (+/+) and (−/−) mice
Protocol: (§1) The mice received four times of MA (8 mg/kg, ip) or saline as a 2 hr-time interval. Chemicals (AME, EBS, and PKC inhibitors) were administrated for 5 consecutive days (twice daily), and were given 2 times at 4 hr and 30 min before the first MA injection as shown in the experimental schedule. Animals were sacrificed at 4 hrs and 3 days after the final MA administration.
Locomotor activity was measured for 30 min 3 days after the last MA administration using an automated video-tracking system (Noldus Information Technology, Wagenin, The Netherlands). Four test boxes (40×40×30 cm high) were operated simultaneously by an IBM computer. Mice were studied individually during locomotion in each test box, where they were adapted for 5 min before starting the experiment. […] The distance traveled in cm by the animals in horizontal locomotor activity was analyzed. Data were collected and analyzed between 09:00 and 17:00 h (Kim et al., 2001).

[2] = system: GPx-1 (+/+)- and GPx-1 (−/−)-mice; test: Rota-rod test after MA; details: PKC inhibitors intra-striatal (chelerythrine 0.2 ug/head, rottlerin 3.0 ug/head significant); MA 8 mg/kg i.p. x4; GPx-1 (+/+) and (−/−) mice
Protocol: as §1
The apparatus (Ugo Basile model 7650, Comerio, VA, Italy) consisted of a base platform and a rotating rod with a nonslippery surface. The rod was placed at a height of 15 cm from the base. The rod, 30 cm in length, was divided into 5 equal sections by 6 opaque disks (so that the subjects cannot be distracted by one another) To assess motor performance, the mice first trained on the apparatus 2 minutes at a constant rate of 4 r.p.m. per 30 s prior to the test. The test was performed 30 minutes after training and an accelerating paradigm was applied, starting from a rate of 4 r.p.m. to a maximum speed of 40 r.p.m., then the rotation speed was kept constant at 40 r.p.m. for a maximum of 300 s. The duration for which the animal could maintain balance on the rotating drum was measured as the rotarod latency, with a maximal cut-off time of 300 s.

[3] = system: GPx-1 (+/+)- and GPx-1 (−/−)-mice; test: MA-induced hyperthermia (rectal temperature); details: PKC inhibitors intra-striatal (doses of Table 1); MA 8 mg/kg i.p. x4; GPx-1 (+/+) and GPx-1 (−/−) mice
Protocol: as §1
Rectal temperature was measured in the MA- or saline-treated mice. Measurement was performed at constant daytime intervals starting at 9:00 A.M. to avoid the influence on circadian variations. Rectal temperature was measured by inserting a thermometer probe lubricated with oil at least 3 cm into the rectum of the mice. To prevent sudden movements occurring especially in MA-treated mice, animals were gently handled with a wool glove while their tail was moved to allow the probe insertion. This was done to prevent the effects of restrain stress on rectal temperature. When the attempt to insert probe was not successful (i.e., sudden movements of the animal or the need to restrain the mouse), the animal was excluded from the groups.

SMILES	effect on MA-induced impairment in locomotor activity [1]	effect on MA-induced impairment in rota-rod performance [2]	effect on MA-induced hyperthermia [3]
Cn1c2ccccc2c2c3c(c4c5ccccc5n(CCC#N)c4c21)CNC3=O [Go 6976]	did not affect MA-induced behavioral impairments	did not affect MA-induced behavioral impairments	did not show any significant effect
O=c1cc(O)cc(/C=C/c2ccc(O)c(O)c2)o1 [hispidin]	did not affect MA-induced behavioral impairments	did not affect MA-induced behavioral impairments	did not show any significant effect
